What all share (format): functional
The test system of assay [1] is Staphylococcus aureus. Description: Antibacterial activity against methicillin-resistant Staphylococcus aureus ATCC 33591 after 16 hrs by CLSI-based broth microdilution method. The conditions noted are these: ATCC 33591, 16 h. In general terms: Dilution methods test growth across graded concentrations, often in twofold steps.
Assay [2] deals with Staphylococcus aureus. Description: Antibacterial activity against Staphylococcus aureus ATCC 25923 after 16 hrs by CLSI-based broth microdilution method. To be noted: ATCC 25923, 16 h.
For assay [3], the system named is Bacillus cereus. Description: Antibacterial activity against Bacillus cereus ATCC 14579 after 16 hrs by CLSI-based broth microdilution method. To be noted: ATCC 14579, 16 h.

Molecules are shown by their SMILES. In brackets after ≈: the same amount, converted by molar mass.

The term MIC denotes the smallest concentration in the dilution series that meets the test's criterion for growth inhibition. With `CCC/C=C/CCCCc1cccc(O)c1`, the MIC in assay [1], in assay [2] and in assay [3] was 16 µg/mL (≈ 73.3 µM) each time.
Regarding `CC(=O)NC[C@H]1CN(c2ccc(N3CCOCC3)c(F)c2)C(=O)O1` [LINEZOLID], the MIC came to 1 µg/mL (≈ 2.96 µM) in assay [1], 0.5 µg/mL (≈ 1.48 µM) in assay [2] and 1 µg/mL (≈ 2.96 µM) in assay [3].
For the compound `C#CCCC/C=C/CCCCc1cccc(O)c1`, the MIC in assay [1], in assay [2] and in assay [3] was 8 µg/mL (≈ 33 µM) each time.

Source of the values: ChEMBL document CHEMBL4619764, “Synthesis of the Cyanobacterial Antibiotics Anaephenes A and B” (2020).
